Source: PubChem BioAssay (NCI)
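Cultured in 96-well plates, cells were exposed to test compound for 48 hours across five concentrations. GI50: concentration for 50% inhibition of growth. At the TGI there is no net growth.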

Experiments:
Test in all cases: NCI anticancer screen, dose series, 48 h
DU-145 prostate = system: DU-145 prostate
SF-295 CNS = system: SF-295 CNS
SF-539 CNS = system: SF-539 CNS
SK-OV-3 ovarian = system: SK-OV-3 ovarian
786-0 renal = system: 786-0 renal
OVCAR-3 ovarian = system: OVCAR-3 ovarian
U251 CNS = system: U251 CNS
EKVX NSCLC = system: EKVX NSCLC
ACHN renal = system: ACHN renal
SNB-19 CNS = system: SNB-19 CNS
UO-31 renal = system: UO-31 renal
UACC-257 melanoma = system: UACC-257 melanoma
KM12 colon = system: KM12 colon
SK-MEL-2 melanoma = system: SK-MEL-2 melanoma
MDA-MB-435 = system: MDA-MB-435
MDA-MB-231 breast = system: MDA-MB-231 breast
HS 578T breast = system: HS 578T breast
SW-620 colon = system: SW-620 colon
UACC-62 melanoma = system: UACC-62 melanoma
NCI-H226 lung = system: NCI-H226 lung
MOLT-4 leukemia = system: MOLT-4 leukemia
SNB-75 CNS = system: SNB-75 CNS
HOP-62 NSCLC = system: HOP-62 NSCLC
NCI/ADR-RES ovarian = system: NCI/ADR-RES ovarian
SK-MEL-28 melanoma = system: SK-MEL-28 melanoma
PC-3 prostate = system: PC-3 prostate
K-562 leukemia = system: K-562 leukemia
LOX IMVI melanoma = system: LOX IMVI melanoma
MALME-3M melanoma = system: MALME-3M melanoma
RXF 393 renal = system: RXF 393 renal
A498 renal = system: A498 renal
HCT-116 colon = system: HCT-116 colon
OVCAR-8 ovarian = system: OVCAR-8 ovarian
SN12C renal = system: SN12C renal
RPMI-8226 leukemia = system: RPMI-8226 leukemia
T-47D breast = system: T-47D breast
BT-549 breast = system: BT-549 breast
TK-10 renal = system: TK-10 renal
HL-60(TB) leukemia = system: HL-60(TB) leukemia
CAKI-1 renal = system: CAKI-1 renal
SK-MEL-5 melanoma = system: SK-MEL-5 melanoma
MCF7 breast = system: MCF7 breast
SF-268 CNS = system: SF-268 CNS
OVCAR-5 ovarian = system: OVCAR-5 ovarian
IGROV1 ovarian = system: IGROV1 ovarian
HCT-15 colon = system: HCT-15 colon
HOP-92 NSCLC = system: HOP-92 NSCLC
CCRF-CEM leukemia = system: CCRF-CEM leukemia
HCC-2998 colon = system: HCC-2998 colon
NCI-H460 lung = system: NCI-H460 lung
M14 melanoma = system: M14 melanoma
HT29 colon = system: HT29 colon
SR leukemia = system: SR leukemia
A549 NSCLC = system: A549 NSCLC
COLO 205 colon = system: COLO 205 colon
OVCAR-4 ovarian = system: OVCAR-4 ovarian
NCI-H23 lung = system: NCI-H23 lung

O=c1cc(-c2ccccc2)[nH]c2ccc(N3CCCC3)cc12
TGI (DU-145 prostate): > 100 µM | TGI (SF-295 CNS): 0.0201 µM | TGI (SF-539 CNS): 0.0703 µM | TGI (SK-OV-3 ovarian): > 100 µM | TGI (786-0 renal): > 52.4 µM | TGI (OVCAR-3 ovarian): 26.1 µM | TGI (U251 CNS): > 46.9 µM | TGI (EKVX NSCLC): > 100 µM | TGI (ACHN renal): > 100 µM | TGI (SNB-19 CNS): > 100 µM | TGI (UO-31 renal): > 100 µM | TGI (UACC-257 melanoma): > 100 µM | TGI (KM12 colon): 0.198 µM | TGI (SK-MEL-2 melanoma): > 100 µM | TGI (MDA-MB-435): < 0.0114 µM | TGI (MDA-MB-231 breast): > 100 µM | TGI (HS 578T breast): > 100 µM | TGI (SW-620 colon): > 100 µM | TGI (UACC-62 melanoma): 85.2 µM | TGI (NCI-H226 lung): 0.0761 µM | TGI (MOLT-4 leukemia): > 100 µM | TGI (SNB-75 CNS): > 100 µM | TGI (HOP-62 NSCLC): > 74.2 µM | TGI (NCI/ADR-RES ovarian): > 100 µM | TGI (SK-MEL-28 melanoma): > 100 µM | TGI (PC-3 prostate): > 100 µM | TGI (K-562 leukemia): > 100 µM | TGI (LOX IMVI melanoma): > 100 µM | TGI (MALME-3M melanoma): > 100 µM | TGI (RXF 393 renal): > 100 µM | TGI (A498 renal): > 100 µM | TGI (HCT-116 colon): > 34.8 µM | TGI (OVCAR-8 ovarian): > 57.9 µM | TGI (SN12C renal): > 100 µM | TGI (RPMI-8226 leukemia): > 100 µM | TGI (T-47D breast): > 100 µM | TGI (BT-549 breast): > 100 µM | TGI (TK-10 renal): > 100 µM | TGI (HL-60(TB) leukemia): < 0.0347 µM | TGI (CAKI-1 renal): > 100 µM | TGI (SK-MEL-5 melanoma): 2.16 µM | TGI (MCF7 breast): > 100 µM | TGI (SF-268 CNS): > 100 µM | TGI (OVCAR-5 ovarian): > 100 µM | TGI (IGROV1 ovarian): > 100 µM | TGI (HCT-15 colon): > 100 µM | TGI (HOP-92 NSCLC): > 100 µM

COc1ccc(/C=C/C(=O)Nc2cc(/C=C\c3cc(OC)c(OC)c(OC)c3)cc(OC)c2OC)cc1OC
GI50 (CCRF-CEM leukemia): 2.48 µM | TGI (CCRF-CEM leukemia): > 100 µM | GI50 (HCC-2998 colon): 6.95 µM | TGI (HCC-2998 colon): > 100 µM | GI50 (NCI-H460 lung): 3.37 µM | TGI (NCI-H460 lung): > 100 µM | GI50 (DU-145 prostate): 26.6 µM | TGI (DU-145 prostate): > 100 µM | GI50 (SF-539 CNS): 3.7 µM | TGI (SF-539 CNS): > 100 µM | GI50 (SK-OV-3 ovarian): 3.02 µM | TGI (SK-OV-3 ovarian): 8.48 µM | GI50 (786-0 renal): 2.98 µM | TGI (786-0 renal): > 100 µM | GI50 (OVCAR-3 ovarian): 5.53 µM | TGI (OVCAR-3 ovarian): > 100 µM | GI50 (U251 CNS): 4.22 µM | TGI (U251 CNS): > 100 µM | GI50 (EKVX NSCLC): 3.47 µM | TGI (EKVX NSCLC): > 100 µM | GI50 (ACHN renal): 4.68 µM | TGI (ACHN renal): > 100 µM | GI50 (SNB-19 CNS): 4.3 µM | TGI (SNB-19 CNS): > 100 µM | GI50 (M14 melanoma): 3.01 µM | TGI (M14 melanoma): > 100 µM | GI50 (UO-31 renal): 2.31 µM | TGI (UO-31 renal): > 100 µM | GI50 (UACC-257 melanoma): 6.5 µM | TGI (UACC-257 melanoma): > 100 µM | GI50 (KM12 colon): 4.22 µM | TGI (KM12 colon): > 100 µM | GI50 (SK-MEL-2 melanoma): 3.05 µM | TGI (SK-MEL-2 melanoma): 9.4 µM | GI50 (MDA-MB-435): 1.29 µM | TGI (MDA-MB-435): 4.52 µM | GI50 (MDA-MB-231 breast): 6.65 µM | TGI (MDA-MB-231 breast): > 100 µM | GI50 (HS 578T breast): 8.92 µM | TGI (HS 578T breast): > 100 µM | GI50 (SW-620 colon): 5.05 µM | TGI (SW-620 colon): > 100 µM | GI50 (UACC-62 melanoma): 2.21 µM | TGI (UACC-62 melanoma): > 100 µM | GI50 (NCI-H226 lung): 3.62 µM | TGI (NCI-H226 lung): > 100 µM | GI50 (MOLT-4 leukemia): 3.35 µM | TGI (MOLT-4 leukemia): > 100 µM | GI50 (HT29 colon): 3.64 µM | TGI (HT29 colon): > 100 µM | GI50 (SNB-75 CNS): 1.68 µM | TGI (SNB-75 CNS): 7.46 µM | GI50 (HOP-62 NSCLC): 3.15 µM | TGI (HOP-62 NSCLC): > 100 µM | GI50 (SR leukemia): 0.668 µM | TGI (SR leukemia): > 100 µM | GI50 (SK-MEL-28 melanoma): 2.87 µM | TGI (SK-MEL-28 melanoma): > 100 µM | GI50 (A549 NSCLC): 3.69 µM | TGI (A549 NSCLC): > 100 µM | GI50 (PC-3 prostate): 3.06 µM | TGI (PC-3 prostate): > 100 µM | GI50 (LOX IMVI melanoma): 4 µM | TGI (LOX IMVI melanoma): > 100 µM | GI50 (MALME-3M melanoma): 2.8 µM | TGI (MALME-3M melanoma): > 100 µM | GI50 (RXF 393 renal): 2.23 µM | TGI (RXF 393 renal): 6.42 µM | GI50 (A498 renal): 4.92 µM | TGI (A498 renal): > 100 µM | GI50 (HCT-116 colon): 3.71 µM | TGI (HCT-116 colon): > 100 µM | GI50 (OVCAR-8 ovarian): 3.44 µM | TGI (OVCAR-8 ovarian): > 100 µM | GI50 (COLO 205 colon): 2.65 µM | TGI (COLO 205 colon): 6.55 µM | GI50 (OVCAR-4 ovarian): 2.49 µM | TGI (OVCAR-4 ovarian): > 100 µM | GI50 (SN12C renal): 3.96 µM | TGI (SN12C renal): > 100 µM | GI50 (RPMI-8226 leukemia): 2.14 µM | TGI (RPMI-8226 leukemia): > 100 µM | GI50 (T-47D breast): 2.21 µM | TGI (T-47D breast): 8.73 µM | GI50 (BT-549 breast): 3.36 µM | TGI (BT-549 breast): 57.8 µM | GI50 (TK-10 renal): 5.13 µM | TGI (TK-10 renal): > 100 µM | GI50 (NCI-H23 lung): 3.48 µM | TGI (NCI-H23 lung): > 100 µM | GI50 (HL-60(TB) leukemia): 2.3 µM | TGI (HL-60(TB) leukemia): 7.66 µM | GI50 (CAKI-1 renal): 2.16 µM | TGI (CAKI-1 renal): > 100 µM | GI50 (SK-MEL-5 melanoma): 1.61 µM | TGI (SK-MEL-5 melanoma): 3.65 µM | GI50 (MCF7 breast): 2.44 µM | TGI (MCF7 breast): > 100 µM | GI50 (SF-268 CNS): 9.1 µM | TGI (SF-268 CNS): > 100 µM | GI50 (OVCAR-5 ovarian): 6.49 µM | TGI (OVCAR-5 ovarian): > 100 µM | GI50 (IGROV1 ovarian): 7.48 µM | TGI (IGROV1 ovarian): > 100 µM | GI50 (HCT-15 colon): 3.58 µM | TGI (HCT-15 colon): > 100 µM | GI50 (HOP-92 NSCLC): > 100 µM | TGI (HOP-92 NSCLC): > 100 µM
